From patent US20230398125A1, “TREATING HEPATITIS” (Albireo AB, priority 2022, published 2023)
Read-outs that look alike come from different tables or passages of the source.

Experiments:
[1] = XTT cell toxicity in primary human hepatocytes; assay type: cell-based; details: human, primary human hepatocytes, read-out: TC50
Protocol: (§1) Multiplicity of Infection (MOI) is defined as the number of HBV genome equivalents, as determined by the qPCR quantitation, added per cell in the respective growth format. The overnight media was removed from the cells and replaced with 190 μL of new, serum-free HI media/4% PEG8000 and 10 μL of the diluted virus stock (HepG2 AD38 genotype D) for a MOI of 500. Medium alone was added to the cells containing compound for the parallel cytotoxicity evaluation. After 18 hours of virus infection, the cells were gently washed five times with DPBS, followed by a new addition of 200 μL HI media containing compounds on day 1, day 4 and day 7 post-infection. In one set of experiments (Study #01), the effect of giving compound 18 h prior to infection, versus 18 h post-infection was studied. The supernatant removed from the cytotoxicity plates at each medium change was stored at −20° C. for shipment to the client. The supernatant was collected at 10 days post infection and stored at −20° C. for total extracellular HBV DNA copy number to be quantitatively determined by qPCR. Cell viability was measured by XTT tetrazolium dye at day 10 for the cytotoxicity plates.
(§2) Following incubation at 37° C. in a 5% CO2 incubator for ten days, the test plates were stained with the tetrazolium dye XTT (2,3-bis(2-methoxy-4-nitro-5-sulfophenyl}-5-[(phenylamino)carbonyl]-2H-tetrazolium hydroxide). XTT-tetrazolium was metabolized by the mitochondrial enzymes of metabolically active cells to a soluble formazan product. XTT solution was prepared daily as a stock of 1 mg/mL in RPMI1640. Phenazine methosulfate (PMS) solution was prepared at 0.15 mg/mL in PBS and stored in the dark at −20° C.
(§3) XTT/PMS stock was prepared immediately before use by adding 40 μL of PMS per mL of XTT solution. Fifty microliters of XTT/PMS were added to each well of the plate and the plate was re-incubated for 4 hours at 37° C. Plates were sealed with adhesive plate sealers and shaken gently or inverted several times to mix the soluble formazan product and the plate was read spectrophotometrically at 450/650 nm with a Molecular Devices Vmax plate reader.
(§4) Each concentration of inhibitor and controls were analyzed in triplicate for HBV DNA copies and for cellular toxicity, respectively. From control wells without inhibitor, the mean of these three replicates was calculated and the HBV DNA mean was set to 100% viral control and the XTT mean was set to 100% cell viability. The effect of compound was then expressed as % of viral control and % cell viability, respectively.

[2] = tested on: Primary Human Hepatocytes; assay: XTT cell toxicity in primary human hepatocytes; assay type: cell-based
Protocol: as §1, §2, §3, §4

[3] = tested on: HBV genotype C; assay: Serum HBsAg in HBV-infected PXB mice; assay type: in vivo, hepatitis B virus; details: 10 mg/kg and 30 mg/kg, Day 7
Protocol: Target volume of blood was collected from all surviving animals under isoflurane anesthesia via the retro-orbital plexus/sinus using Intramedic™ Polyethylene Tubing at each time point. Two microliters (2 μL) from the collected blood were used for human albumin measurements. The remaining blood was centrifuged to separate serum to be used for analyzing the indicated biomarkers. Blood samples were collected according to Table 8.
The individual blood samples of the animals were left at room temperature for at least 5 minutes to coagulate and then centrifuged at 13200×g, 4° C. for 3 minutes to obtain serum. The serum was divided into separate labeled microtubes and stored at −80° C. until analysis.
Serum HBsAg concentration was determined by SRL, Inc. (Tokyo, Japan) based on a Chemiluminescent Enzyme Immuno Assay (CLEIA) developed by Fujirebio ([…] HBsAg-HQ, […]® Prestoll). The dilution factor was 30 and 10, and the measurement range of this assay was between 0.005 and 150 IU/mL. For the 30-fold diluted samples, the measurement range was adjusted to be between 0.15 and 4500 IU/mL. And for the 10-fold diluted samples, the measurement range was adjusted to be between 0.05 and 1500 IU/mL. The lowest quantification limit of this assay was 0.15 IU/mL serum.

[4] = tested on: HBV (HepG2 AD38 genotype D); assay: Combination of Compound 1 with tenofovir in HBV-infected primary human hepatocytes (MacSynergy II); assay type: cell-based, hepatitis B virus; details: summary of studies
Protocol: In two sets of experiments, the effect of combining Compound 1 with tenofovir was studied. Effects of the drug combination were calculated based on the activity of the two compounds when tested alone. The expected additive antiviral protection (based on the dose response curves of the individual agents used alone) was subtracted from the experimentally determined antiviral activity at each combination concentration resulting in a positive value (synergy), a negative value (antagonism), or zero (additivity). […] The results of the combination assays were expressed as a synergy volume μM2% calculated at the 95% confidence interval using the MacSynergy II template.
For these studies, synergy was defined as drug combinations yielding synergy volumes greater than 50 μM2%. Slightly synergistic activity and highly synergistic activity have been defined as yielding synergy volumes of […] and >100 μM2%, respectively.
Synergy volumes between −50 and 50 μM2% were considered additive and synergy volumes less than −50 μM2% were considered antagonistic.

## CCCCC1CN(c2ccccc2)c2cc(SC)c(O/C=C(\F)C(=O)O)cc2S(=O)(=O)N1C (stereo not shown) [Compound 1, (Z)-3-((3-butyl-2-methyl-7-(methylthio)-1,1-dioxido-5-phenyl-2,3,4,5-tetrahydro-1,2,5-benzothiadiazepin-8-yl)oxy)-2-fluoroacrylic acid]
[1]; Study #01, XTT, PHH
  CC50 at 10 days: > 1000 nM
[1]; Study #02
  CC50 at 10 days: > 200 nM
[1]; Study #03
  CC50 at 10 days: > 50 nM
[2]; Study #01, 18 h post-infection section
  TC50: >1000 nM
[2]; any concentration tested (up to 100 μmol/L)
  effect on cell viability: did not affect cell viability
[3]
  serum HBsAg compared to controls: lower
[4]
  antiviral effect when given together with tenofovir disoproxil fumarate: additive
